Tests used:
Assay type in all cases: in vivo
Kochia (Kochia scoparia) [1] = test: Test A preemergence; settings: Bassia scoparia, pre-emergence, 240 h, 0 to 100 scale (0 no effect, 100 complete control), read-out: Plant response rating, Kochia
In short: (§1)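 Compounds were formulated in a non-phytotoxic solvent mixture with surfactant and applied as a preemergence directed soil spray after seeding, or sprayed postemergence over plants 2 to 10 cm tall at the one- to two-leaf stage. Evaluation after about 10 d compared treated with untreated controls, using a scale from 0 (no effect) to 100 (complete control).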

[2] = tested on: barnyardgrass (Echinochloa crus-galli); test: Test A preemergence; settings: Echinochloa crus-galli, pre-emergence, 240 h, 0 to 100 scale (0 no effect, 100 complete control), read-out: Plant response rating, Barnyardgrass
In short: as §1

[3] = tested on: giant foxtail (Setaria faberii); test: Test A preemergence; settings: Setaria faberi, pre-emergence, 240 h, 0 to 100 scale (0 no effect, 100 complete control), read-out: Plant response rating, Foxtail, Giant
In short: as §1

[4] = tested on: pigweed (Amaranthus retroflexus); test: Test A preemergence; settings: Amaranthus retroflexus, pre-emergence, 240 h, 0 to 100 scale (0 no effect, 100 complete control), read-out: Plant response rating, Pigweed
[5] = tested on: ragweed (common ragweed, Ambrosia elatior); test: Test A preemergence; settings: Ambrosia artemisiifolia, pre-emergence, 240 h, 0 to 100 scale (0 no effect, 100 complete control), read-out: Plant response rating, Ragweed
In short: as §1

[6] = tested on: ryegrass, Italian (Italian ryegrass, Lolium multiflorum); test: Test A preemergence; settings: Lolium multiflorum, pre-emergence, 240 h, 0 to 100 scale (0 no effect, 100 complete control), read-out: Plant response rating, Ryegrass, Italian
In short: as §1

[7] = tested on: Galium (catchweed bedstraw, Galium aparine); test: Test A postemergence; settings: Galium, post-emergence, 240 h, Postemergence
In short: as §1

Kochia (Kochia scoparia) [8] = test: Test A postemergence; settings: Bassia scoparia, post-emergence, 240 h, Postemergence
In short: as §1

[9] = tested on: barnyardgrass (Echinochloa crus-galli); test: Test A postemergence; settings: Echinochloa crus-galli, post-emergence, 240 h, Postemergence
In short: as §1

corn (Zea mays) = test: Test A postemergence; settings: Zea mays, post-emergence, 240 h, Postemergence
In short: as §1

[10] = tested on: giant foxtail (Setaria faberii); test: Test A postemergence; settings: Setaria faberi, post-emergence, 240 h, Postemergence
In short: as §1

[11] = tested on: pigweed (Amaranthus retroflexus); test: Test A postemergence; settings: Amaranthus retroflexus, post-emergence, 240 h, Postemergence
In short: as §1

[12] = tested on: ragweed (common ragweed, Ambrosia elatior); test: Test A postemergence; settings: Ambrosia artemisiifolia, post-emergence, 240 h, Postemergence
In short: as §1

[13] = tested on: ryegrass, Italian (Italian ryegrass, Lolium multiflorum); test: Test A postemergence; settings: Lolium multiflorum, post-emergence, 240 h, Postemergence
In short: as §1

[14] = tested on: wheat (Triticum aestivum); test: Test A postemergence; settings: Triticum aestivum, post-emergence, 240 h, Postemergence
In short: as §1

Question: Which results are given for `C=CN1C[C@H](c2ccc(C)c(F)c2)[C@@H](C(=O)Nc2cccc(F)c2F)C1=O` (racemic) [Compound 1332]?
Answer: pest or weed control at 500 g/ha (Kochia (Kochia scoparia) [1]; 500 g ai/ha, preemergence): 0%; pest or weed control at 125 g/ha (Kochia (Kochia scoparia) [1]; Preemergence, 125 g ai/ha): 0%; pest or weed control at 500 g/ha ([2]; 500 g ai/ha, preemergence): 90%; pest or weed control at 125 g/ha ([2]; Preemergence, 125 g ai/ha): 70%; pest or weed control at 500 g/ha ([3]; 500 g ai/ha, preemergence): 90%; pest or weed control at 125 g/ha ([3]; Preemergence, 125 g ai/ha): 80%; pest or weed control at 500 g/ha ([4]; 500 g ai/ha, preemergence): 0%; pest or weed control at 125 g/ha ([4]; Preemergence, 125 g ai/ha): 0%; pest or weed control at 500 g/ha ([5]; 500 g ai/ha, preemergence): 0%; pest or weed control at 125 g/ha ([5]; Preemergence, 125 g ai/ha): 0%; pest or weed control at 500 g/ha ([6]; 500 g ai/ha, preemergence): 0%; pest or weed control at 125 g/ha ([6]; Preemergence, 125 g ai/ha): 0%; pest or weed control at 125 g/ha ([7]; 125 g ai/ha, visual rating about 10 d after treatment, read-out: Galium plant response rating (0 to 100 scale)): 0%; pest or weed control at 500 g/ha ([7]; 500 g ai/ha, visual injury, 0 to 100 scale (0 no effect, 100 complete control), approx. 10 d, read-out: Plant response rating, Galium): 20%; pest or weed control at 125 g/ha (Kochia (Kochia scoparia) [8]; 125 g ai/ha, visual rating about 10 d after treatment, read-out: Kochia plant response rating (0 to 100 scale)): 0%; pest or weed control at 500 g/ha (Kochia (Kochia scoparia) [8]; 500 g ai/ha, visual injury, 0 to 100 scale (0 no effect, 100 complete control), approx. 10 d, read-out: Plant response rating, Kochia): 0%; pest or weed control at 125 g/ha ([9]; 125 g ai/ha, visual rating about 10 d after treatment, read-out: Barnyardgrass plant response rating (0 to 100 scale, 0 no effect, 100 complete control)): 50%; pest or weed control at 500 g/ha ([9]; 500 g ai/ha, visual injury, 0 to 100 scale (0 no effect, 100 complete control), approx. 10 d, read-out: Plant response rating, Barnyardgrass): 60%; plant injury at 125 g/ha (corn (Zea mays); 125 g ai/ha, visual rating about 10 d after treatment, read-out: Corn plant response rating (0 to 100 scale)): 0%; Corn plant response rating (crop injury, 0 = no effect, 100 = complete kill) at 500 g/ha (corn (Zea mays); 500 g ai/ha, visual injury, 0 to 100 scale (0 no effect, 100 complete control), approx. 10 d): 0%; pest or weed control at 125 g/ha ([10]; 125 g ai/ha, visual rating about 10 d after treatment, read-out: Foxtail, Giant plant response rating (0 to 100 scale)): 40%; pest or weed control at 500 g/ha ([10]; 500 g ai/ha, visual injury, 0 to 100 scale (0 no effect, 100 complete control), approx. 10 d, read-out: Plant response rating, Foxtail, Giant): 60%; pest or weed control at 125 g/ha ([11]; 125 g ai/ha, visual rating about 10 d after treatment, read-out: Pigweed plant response rating (0 to 100 scale)): 0%; pest or weed control at 500 g/ha ([11]; 500 g ai/ha, visual injury, 0 to 100 scale (0 no effect, 100 complete control), approx. 10 d, read-out: Plant response rating, Pigweed): 0%; pest or weed control at 125 g/ha ([12]; 125 g ai/ha, visual rating about 10 d after treatment, read-out: Ragweed plant response rating (0 to 100 scale)): 0%; pest or weed control at 500 g/ha ([12]; 500 g ai/ha, visual injury, 0 to 100 scale (0 no effect, 100 complete control), approx. 10 d, read-out: Plant response rating, Ragweed): 20%; pest or weed control at 125 g/ha ([13]; 125 g ai/ha, visual rating about 10 d after treatment, read-out: Ryegrass, Italian plant response rating (0 to 100 scale)): 0%; pest or weed control at 500 g/ha ([13]; 500 g ai/ha, visual injury, 0 to 100 scale (0 no effect, 100 complete control), approx. 10 d, read-out: Plant response rating, Ryegrass, Italian): 0%; plant injury at 125 g/ha ([14]; 125 g ai/ha, visual rating about 10 d after treatment, read-out: Wheat plant response rating (0 to 100 scale)): 0%; plant injury at 500 g/ha ([14]; 500 g ai/ha, visual injury, 0 to 100 scale (0 no effect, 100 complete control), approx. 10 d, read-out: Plant response rating, Wheat): 20%

From patent US12077503B2, “Substituted cyclic amides and their use as herbicides” (FMC CORPORATION, priority 2015, dated 2024)
